Reference: patent USRE49050E1, “Traditional Chinese medicine composition, and preparation and application thereof” (Tasly Pharmaceutical Group Co., Ltd., priority 2013, dated 2022)

Tests used:
Assay type in all cases: in vivo
[1] = test system: collagen-induced platelet aggregation; assay: Platelet aggregation rate trial in rabbits, collagen-induced; details: dose 60 mg/kg intragastric once a day for 7 days, n = 8
Method: (§1) The rabbits were randomly grouped into 4 groups: the model group was given with distilled water, the aspirin group ([…]), Extract A groups of low dose and high dose at 42 and 84 mg/kg (respectively 1 2 times of clinic equivalent dosage), intragastrically administrated, once a day for 7 consecutive days. The volume of medicine administrated was 1 ml/kg body weight. 60 min after intragastric administration on 7th day, the animals were anesthetized locally, blooded through carotid artery, anticoagulated with sodium citrate (3.8%) 1:9 and centrifugated at 1000 r/min for 10 min. Platelet-rich plasma (PRP) was taken and the remain centrifugated at 3000 r/min to take platelet-poor plasma (PPP. Aggregation was induced by ADP (final concentration 3 μg/ml), AA (final concentration 80 μg/ml) and collagen ([…]). […] platelet aggregation & coagulation factor analyzer was used to measure the maximum platelet aggregation rate and to calculate inhibition rate according to following formula. [formula] Results

[2] = test system: AA-induced platelet aggregation; assay: Platelet aggregation rate trial in rabbits, AA-induced; details: AA 80 μg/ml; dose 60 mg/kg intragastric once a day for 7 days; n = 8
Method: as §1

[3] = test system: ADP-induced platelet aggregation; assay: Platelet aggregation rate trial in rabbits, ADP-induced; details: ADP 3 μg/ml; dose 60 mg/kg intragastric once a day for 7 days; n = 8
Method: as §1

Structure (SMILES): CC(=O)Oc1ccccc1C(=O)O [Aspirin]
- Platelet aggregation rate [1]: 6.23 ± 2.41 %
- Platelet aggregation rate [2]: 6.13 ± 2.03 %
- Platelet aggregation rate [3]: 18.96 ± 4.11 %
